Results: patent US5556744A, “Methods and compositions for diagnosing and treating certain HIV infected patients” (The Trustees of the University of Pennsylvania, priority 1994, dated 1996)

Legend:
[1] = test system: maternal serum samples (antibodies); assay: ELISA peptide-binding of maternal sera, expanded peptide collection (Example 5); design: species or system human; details: Example 5
Procedure, shortened: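 Maternal sera diluted 1:50 or 1:500 in 1% BSA/PBS/0.05% Tween 20 were tested by ELISA on 10 μg/mL HIV IIIB gp120/gp41 peptides (~18 residues, ≥85% pure). Binding scored positive at experimental/control OD450nm ratio ≥2; HIV-seronegative human sera served as controls.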

[2] = test system: maternal HIV+ sera (antibodies); assay: RIA / ELISA binding of maternal HIV+ sera to gp120 and gp41 peptides (Example 3); design: species or system human
Procedure, shortened: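 Peptides were coated at 10 μg/ml in carbonate buffer pH 9.6 and blocked with 1% BSA. Sera at 1:50 and 1:500 were incubated overnight at 4°C and detected with ¹²⁵I anti-human IgG (RIA) or HRP/TMB at OD450 (ELISA). Specific binding was taken as peptide minus no-peptide wells, scored as a ratio to normal human serum.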

[3] = test system: maternal sera (antibodies); assay: ELISA peptide-binding of maternal sera (Example 6); design: species or system human
Procedure, shortened: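 Third-trimester maternal sera, from HIV-1 transmitting and non-transmitting mothers, were tested by ELISA against ~16-residue peptides spanning HIV-1 external and transmembrane glycoproteins. Each serum was run with at least 40 peptides, and values are the percentage of sera binding each peptide.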

HIV-1 = details: antisera (animals); cited from earlier work

For CTKAKRRVVQREKA [Peptide 497], the “Binding / reactivity of maternal sera to peptide (in words)” value [1] was “High reactivity but no difference between the two groups”, the “Number of maternal sera binding to peptide” value ([2]; 20 maternal sera) was “Sixteen” and the “Percentage of sera samples demonstrating binding to peptide, non-transmitter” value ([2]; Non-transmitter group, n = 13) was 71%. The “Binding of maternal HIV+ serum to peptide (sera/NHS ratio)” value (shortened to “Binding … (sera/NHS ratio)”) ([2]; Serum No. 1, Non-Transmission Group) was “- (specific OD450 or cpm of sera sample binding to peptide divided by the specific OD450 or cpm of NHS sample binding to peptide, which value is less than 2)”, the “Binding … (sera/NHS ratio)” value ([2]; Serum No. 2, Non-Transmission Group) was “++ (which value is greater than 3)” and the “Binding … (sera/NHS ratio)” value ([2]; Serum No. 3, Non-Transmission Group) was “++ (which value is greater than 3)”. The “Binding … (sera/NHS ratio)” value ([2]; Serum No. 4, Transmission Group) was “++ (which value is greater than 3)”, the “Binding … (sera/NHS ratio)” value ([2]; Serum No. 5, Transmission Group) was “+ (which value is between 2 to 3)” and the “Binding … (sera/NHS ratio)” value ([2]; Serum No. 6, Non-Transmission Group) was “+ (which value is between 2 to 3)”. The “Binding … (sera/NHS ratio)” value ([2]; Serum No. 7, Non-Transmission Group) was “- (specific OD450 or cpm of sera sample binding to peptide divided by the specific OD450 or cpm of NHS sample binding to peptide, which value is less than 2)”, the “Binding … (sera/NHS ratio)” value ([2]; Serum No. 8, Non-Transmission Group) was “++ (which value is greater than 3)” and the “Binding … (sera/NHS ratio)” value ([2]; Serum No. 9, Non-Transmission Group) was “++ (which value is greater than 3)”. The “Binding … (sera/NHS ratio)” value ([2]; Serum No. 10, Transmission Group) was “+ (which value is between 2 to 3)”, the “Binding … (sera/NHS ratio)” value ([2]; Serum No. 11, Non-Transmission Group) was “++ (which value is greater than 3)” and the “Binding … (sera/NHS ratio)” value ([2]; Serum No. 12, Non-Transmission Group) was “- (specific OD450 or cpm of sera sample binding to peptide divided by the specific OD450 or cpm of NHS sample binding to peptide, which value is less than 2)”. The “Binding … (sera/NHS ratio)” value ([2]; Serum No. 13, Transmission Group) was “- (specific OD450 or cpm of sera sample binding to peptide divided by the specific OD450 or cpm of NHS sample binding to peptide, which value is less than 2)”, the “Binding … (sera/NHS ratio)” value ([2]; Serum No. 14, Transmission Group) was “- (specific OD450 or cpm of sera sample binding to peptide divided by the specific OD450 or cpm of NHS sample binding to peptide, which value is less than 2)” and the “Binding … (sera/NHS ratio)” value ([2]; Serum No. 15, Transmission Group) was “++ (which value is greater than 3)”. The “Binding … (sera/NHS ratio)” value ([2]; Serum No. 16, Non-Transmission Group) was “++ (which value is greater than 3)”, the “Binding … (sera/NHS ratio)” value ([2]; Serum No. 17, Non-Transmission Group) was “++ (which value is greater than 3)” and the “Binding … (sera/NHS ratio)” value ([2]; Serum No. 18, Non-Transmission Group) was “+ (which value is between 2 to 3)”. The “Binding … (sera/NHS ratio)” value ([2]; Serum No. 19, Transmission Group) was “+ (which value is between 2 to 3)”, the “Binding … (sera/NHS ratio)” value ([2]; Serum No. 20, Non-Transmission Group) was “+ (which value is between 2 to 3)” and the “Percentage of sera samples demonstrating binding to peptide, transmitter” value ([2]; Transmitter / transmission group, n = 7) was “Seventy-seven”. The “Percent of the maternal serum samples that bound to the peptide” value ([2]; all 20 samples) was 80%, the “Number of Non-Transmitters which bound to peptide” value ([3]; Non-Transmitters, N = 12) was 0 and the “Percent of Non-Transmitters which bound to peptide” value ([3]; Non-Transmitters, N = 12) was 0%. The “Number of Transmitters which bound to peptide” value ([3]; Transmitters, N = 4) was 0, the “Percent of Transmitters which bound to peptide” value ([3]; Transmitters, N = 4) was 0% and the “Neutralizing activity of antisera generated to the peptide” value (HIV-1) was “do not demonstrate neutralizing activity”.
